Laboratory results reported in PubChem BioAssay AID1963429 (Molecular Pharmacology Branch, DTP, NCI, 2024).

System: 126254-015-R-J1-PDC complex spheroid growth, % test/control
Assay: Anticancer human tumor 126254-015-R-J1-PDC patient-derived soft tissue sarcoma cell line growth inhibition [Asc]
Conditions: for IC50: curve of first compound; for viability, T/C: stronger effect = lower value
Method in brief: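 Complex solid-tumor spheroids incorporating human endothelial and mesenchymal stem cells received single agents or combinations over half-log dilution ranges anchored to clinical Cmax.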

[1] = second compound 0.03 µM, first compound 0.0316 µM
[2] = second compound 0.03 µM, first compound 0.1 µM
[3] = second compound 0.03 µM, first compound 0.316 µM
[4] = second compound 0.03 µM, first compound 1 µM
[5] = second compound 0.03 µM, first compound 3.16 µM
[6] = second compound 0.03 µM, first compound 10 µM
[7] = second compound 0.0949 µM, first compound 0.0316 µM
[8] = second compound 0.0949 µM, first compound 0.1 µM
[9] = second compound 0.0949 µM, first compound 0.316 µM
[10] = second compound 0.0949 µM, first compound 1 µM
[11] = second compound 0.0949 µM, first compound 3.16 µM
[12] = second compound 0.0949 µM, first compound 10 µM
[13] = second compound 0.3 µM, first compound 0.0316 µM
[14] = second compound 0.3 µM, first compound 0.1 µM
[15] = second compound 0.3 µM, first compound 0.316 µM
[16] = second compound 0.3 µM, first compound 1 µM
[17] = second compound 0.3 µM, first compound 3.16 µM
[18] = second compound 0.3 µM, first compound 10 µM
[19] = second compound 0.949 µM, first compound 0.0316 µM
[20] = second compound 0.949 µM, first compound 0.1 µM
[21] = second compound 0.949 µM, first compound 0.316 µM
[22] = second compound 0.949 µM, first compound 1 µM
[23] = second compound 0.949 µM, first compound 3.16 µM
[24] = second compound 0.949 µM, first compound 10 µM
[25] = second compound 3 µM, first compound 0.0316 µM
[26] = second compound 3 µM, first compound 0.1 µM
[27] = second compound 3 µM, first compound 0.316 µM
[28] = second compound 3 µM, first compound 1 µM
[29] = second compound 3 µM, first compound 3.16 µM
[30] = second compound 3 µM, first compound 10 µM
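Also: spheroids exposed to compound for seven days.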
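For viability, T/C in this document: 100% = DMSO vehicle control wells.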

For `C#Cc1c(F)ccc2cc(O)cc(-c3ncc4c(N5CC6CCC(C5)N6)nc(OCC56CCCN5CC(F)C6)nc4c3F)c12` (stereo not given) + CCN1C(C(=O)NC23CCC(C(=O)O)(CC2)CC3)C(c2cccc(Cl)c2F)C2(C(=O)Nc3cc(Cl)ccc32)C12CCCCC2, the IC50 (second compound 0.03 µM) was greater than 10 µM, the IC50 (second compound 0.0949 µM) was greater than 10 µM and the IC50 (second compound 0.3 µM) was greater than 10 µM. The IC50 (second compound 0.949 µM) was greater than 10 µM, the IC50 (second compound 3 µM) was greater than 10 µM and the viability, T/C [1] was 96.1%. It also gave a viability, T/C [2] of 102%, a viability, T/C [3] of 100% and a viability, T/C [4] of 96.2%. The viability, T/C [5] was 95.5%, the viability, T/C [6] was 79.4% and the viability, T/C [7] was 101%. The viability, T/C [8] was 95.3%, the viability, T/C [9] was 96.2% and the viability, T/C [10] was 84.8%. For the same compound, the viability, T/C [11] was 87.3%, the viability, T/C [12] was 69.9% and the viability, T/C [13] was 99%. It also gave a viability, T/C [14] of 104%, a viability, T/C [15] of 97.7% and a viability, T/C [16] of 101%. It also gave a viability, T/C [17] of 99.2%, a viability, T/C [18] of 88% and a viability, T/C [19] of 92%. For the same compound, the viability, T/C [20] was 103%, the viability, T/C [21] was 94.9% and the viability, T/C [22] was 88.7%. The viability, T/C [23] was 97.3%, the viability, T/C [24] was 93% and the viability, T/C [25] was 103%. For the same compound, the viability, T/C [26] was 94%, the viability, T/C [27] was 86.1% and the viability, T/C [28] was 98.6%. The viability, T/C [29] was 86.2% and the viability, T/C [30] was 78.5%.
`C=C(F)C(=O)N1CCN(c2nc(OCC3CCCN3C)nc3c2CCN(c2cccc4cccc(Cl)c24)C3)CC1CC#N` (stereo not given) + CNC(C)C(=O)NC1CN(S(=O)(=O)c2cccc(S(=O)(=O)N3CCC4CCC(C(=O)NC(c5ccccc5)c5ccccc5)N4C(=O)C(NC(=O)C(C)NC)C3)c2)CCC2CCC(C(=O)NC(c3ccccc3)c3ccccc3)N2C1=O was tested, and the IC50 (second compound 0.01 µM) was 2.55 µM, the IC50 (second compound 0.0316 µM) was 2.2 µM and the IC50 (second compound 0.1 µM) was 1.34 µM. The IC50 (second compound 0.316 µM) was 1.21 µM, the IC50 (second compound 1 µM) was 0.505 µM and the viability, T/C (second compound 0.01 µM, first compound 0.0316 µM) was 80%. The viability, T/C (second compound 0.01 µM, first compound 0.1 µM) was 89.3%, the viability, T/C (second compound 0.01 µM, first compound 0.316 µM) was 80.1% and the viability, T/C (second compound 0.01 µM, first compound 1 µM) was 74.8%. The viability, T/C (second compound 0.01 µM, first compound 3.16 µM) was 44.3%, the viability, T/C (second compound 0.01 µM, first compound 10 µM) was 0.18% and the viability, T/C (second compound 0.0316 µM, first compound 0.0316 µM) was 71.4%. For the same compound, the viability, T/C (second compound 0.0316 µM, first compound 0.1 µM) was 71%, the viability, T/C (second compound 0.0316 µM, first compound 0.316 µM) was 71.4% and the viability, T/C (second compound 0.0316 µM, first compound 1 µM) was 63.9%. It also gave a viability, T/C (second compound 0.0316 µM, first compound 3.16 µM) of 43.5%, a viability, T/C (second compound 0.0316 µM, first compound 10 µM) of 0.14% and a viability, T/C (second compound 0.1 µM, first compound 0.0316 µM) of 61%. The viability, T/C (second compound 0.1 µM, first compound 0.1 µM) was 67.3%, the viability, T/C (second compound 0.1 µM, first compound 0.316 µM) was 64.6% and the viability, T/C (second compound 0.1 µM, first compound 1 µM) was 53.2%. It also gave a viability, T/C (second compound 0.1 µM, first compound 3.16 µM) of 35.2%, a viability, T/C (second compound 0.1 µM, first compound 10 µM) of 0.14% and a viability, T/C (second compound 0.316 µM, first compound 0.0316 µM) of 65.4%. The viability, T/C (second compound 0.316 µM, first compound 0.1 µM) was 66.1%, the viability, T/C (second compound 0.316 µM, first compound 0.316 µM) was 64% and the viability, T/C (second compound 0.316 µM, first compound 1 µM) was 45%. The viability, T/C (second compound 0.316 µM, first compound 3.16 µM) was 40.7%, the viability, T/C (second compound 0.316 µM, first compound 10 µM) was 0.15% and the viability, T/C (second compound 1 µM, first compound 0.0316 µM) was 58.7%. It also gave a viability, T/C (second compound 1 µM, first compound 0.1 µM) of 59.2%, a viability, T/C (second compound 1 µM, first compound 0.316 µM) of 57.5% and a viability, T/C (second compound 1 µM, first compound 1 µM) of 40.4%. It also gave a viability, T/C (second compound 1 µM, first compound 3.16 µM) of 27.4% and a viability, T/C (second compound 1 µM, first compound 10 µM) of 0.2%.
In the case of `O=C(c1cc(Cc2n[nH]c(=O)c3ccccc23)ccc1F)N1CCN(C(=O)C2CC2)CC1` + CCN1C(C(=O)NC23CCC(C(=O)O)(CC2)CC3)C(c2cccc(Cl)c2F)C2(C(=O)Nc3cc(Cl)ccc32)C12CCCCC2, the IC50 (second compound 0.03 µM) is reported as greater than 10 µM, the IC50 (second compound 0.0949 µM) is reported as greater than 10 µM and the IC50 (second compound 0.3 µM) is reported as greater than 10 µM. The IC50 (second compound 0.949 µM) was greater than 10 µM, the IC50 (second compound 3 µM) was greater than 10 µM and the viability, T/C [1] was 95.7%. It also gave a viability, T/C [2] of 87.7%, a viability, T/C [3] of 90.3% and a viability, T/C [4] of 74.5%. The viability, T/C [5] was 84.1%, the viability, T/C [6] was 60% and the viability, T/C [7] was 95.5%. The viability, T/C [8] was 100%, the viability, T/C [9] was 87.7% and the viability, T/C [10] was 97.4%. It also gave a viability, T/C [11] of 83.2%, a viability, T/C [12] of 59.2% and a viability, T/C [13] of 98.4%. The viability, T/C [14] was 90.9%, the viability, T/C [15] was 92.2% and the viability, T/C [16] was 83.6%. For the same compound, the viability, T/C [17] was 77.2%, the viability, T/C [18] was 59% and the viability, T/C [19] was 90%. It also gave a viability, T/C [20] of 97%, a viability, T/C [21] of 93.6% and a viability, T/C [22] of 83.9%. It also gave a viability, T/C [23] of 73.8%, a viability, T/C [24] of 59.3% and a viability, T/C [25] of 88.8%. For the same compound, the viability, T/C [26] was 90.5%, the viability, T/C [27] was 93.7% and the viability, T/C [28] was 85.4%. The viability, T/C [29] was 73.1% and the viability, T/C [30] was 70.5%.
